# The source made the active and inactive calls. No cut-off for these calls is given here.
# Assays:
# Assay type in all cases: functional, organism-based
# [1] = tested on: Digitaria sanguinalis; test: Post-emergence herbicidal activity against Digitaria sanguinalis (hairy crabgrass) assessed as growth inhibition at 25 g a.i/10 a applied 11 days after germination as foliar spray
# [2] = tested on: Amaranthus retroflexus; test: Pre-emergence herbicidal activity against Amaranthus retroflexus assessed as growth inhibition at 25 g a.i/10 a
# [3] = tested on: Persicaria nodosa; test: Post-emergence herbicidal activity against Persicaria nodosa assessed as growth inhibition at 25 g a.i/10 a applied 11 days after germination as foliar spray
# [4] = tested on: Echinochloa crus-galli; test: Pre-emergence herbicidal activity against Echinochloa crus-galli (barnyard grass) assessed as growth inhibition at 25 g a.i/10 a
# [5] = tested on: Digitaria sanguinalis; test: Pre-emergence herbicidal activity against Digitaria sanguinalis (hairy crabgrass) assessed as growth inhibition at 25 g a.i/10 a
# [6] = tested on: Persicaria nodosa; test: Pre-emergence herbicidal activity against Persicaria nodosa assessed as growth inhibition at 25 g a.i/10 a
# [7] = tested on: Cyperus iria; test: Pre-emergence herbicidal activity against Cyperus iria assessed as growth inhibition at 25 g a.i/10 a
# [8] = tested on: Amaranthus retroflexus; test: Post-emergence herbicidal activity against Amaranthus retroflexus assessed as growth inhibition at 25 g a.i/10 a applied 11 days after germination as foliar spray
# [9] = tested on: Echinochloa crus-galli; test: Post-emergence herbicidal activity against Echinochloa crus-galli (barnyard grass) assessed as growth inhibition at 25 g a.i/10 a applied 11 days after germination as foliar spray
# [10] = tested on: Chenopodium album; test: Post-emergence herbicidal activity against Chenopodium album assessed as growth inhibition at 25 g a.i/10 a applied 11 days after germination as foliar spray
# [11] = tested on: Cyperus iria; test: Post-emergence herbicidal activity against Cyperus iria assessed as growth inhibition at 25 g a.i/10 a applied 11 days after germination as foliar spray
# [12] = tested on: Chenopodium album; test: Pre-emergence herbicidal activity against Chenopodium album assessed as growth inhibition at 25 g a.i/10 a
SMILES,growth inhibition (GI) [1],growth inhibition (GI) [2],growth inhibition (GI) [3],growth inhibition (GI) [4],growth inhibition (GI) [5],growth inhibition (GI) [6],growth inhibition (GI) [7],growth inhibition (GI) [8],growth inhibition (GI) [9],growth inhibition (GI) [10],growth inhibition (GI) [11],growth inhibition (GI) [12]
COc1cc(OC)nc(Nc2cccc(Cl)c2C(=O)O)n1,inactive,inactive,inactive,inactive,inactive,inactive,inactive,Active,inactive,inactive,inactive,inactive
COc1cc(OC)nc(Oc2ccc(-n3cccc3)cc2C(=O)O)n1,Active,inactive,Active,inactive,inactive,inactive,inactive,Active,Active,inactive,Active,inactive
CCOCCOc1cccc(Oc2nc(OC)cc(OC)n2)c1C(=O)O,Active,Active,Active,Active,Active,Active,Active,Active,Active,Active,Active,Active
COc1ccc(Oc2nc(OC)cc(OC)n2)c(C(=O)O)c1,Active,Active,Active,Active,Active,Active,Active,Active,Active,inactive,Active,Active
COc1cc(OC)nc(Oc2ccc(I)cc2C(=O)O)n1,inactive,inactive,Active,inactive,inactive,inactive,inactive,inactive,Active,inactive,Active,inactive
COc1cc(OC)nc(Oc2ccc(C(F)(F)F)cc2C(=O)O)n1,inactive,inactive,inactive,inactive,inactive,inactive,inactive,Active,inactive,inactive,inactive,inactive
COc1cc(OC)nc(Oc2c(Cl)cccc2C(=O)O)n1,inactive,–,Active,–,–,–,–,Active,inactive,inactive,Active,–
CNc1ccc(Oc2nc(OC)cc(OC)n2)c(C(=O)O)c1,Active,Active,Active,inactive,inactive,Active,Active,Active,Active,Active,Active,Active
COc1cc(OC)nc(Cc2cccc(Cl)c2C(=O)O)n1,Active,Active,Active,Active,Active,Active,Active,Active,Active,Active,Active,Active
CCCSc1cccc(Oc2nc(OC)cc(OC)n2)c1C(=O)O,inactive,inactive,Active,inactive,inactive,inactive,inactive,Active,inactive,inactive,inactive,inactive
COc1cc(OC)nc(Oc2cccc(C(=O)c3ccccc3)c2C(=O)O)n1,inactive,Active,Active,inactive,inactive,inactive,Active,Active,inactive,Active,Active,Active
COc1cc(OC)nc(Oc2ccc(C)cc2C(=O)O)n1,inactive,Active,Active,inactive,inactive,inactive,Active,Active,Active,inactive,inactive,Active
COc1cc(OC)nc(Oc2ccc(OC(C)C)cc2C(=O)O)n1,inactive,inactive,Active,inactive,inactive,inactive,inactive,inactive,Active,inactive,Active,inactive
CCCCOc1cccc(Oc2nc(OC)cc(OC)n2)c1C(=O)O,Active,Active,Active,Active,Active,inactive,Active,Active,Active,Active,Active,Active

# From ChEMBL document CHEMBL3046894, “Synthesis and Herbicidal Activity of Pyrimidinyl Salicylic and Thiosalicylic Acids” (J Pestic Sci, 1996)
